Tested on: E. coli
Assay: Agar well diffusion, screening for inhibition of E. coli
Format: cell-based, Escherichia coli
Conditions: E. coli O147:K89 F4 H19
Method: The seven pathogenic E. coli and Salmonella spp. strains were each suspended in MRD until McFarland 0.5 was obtained and 10 μL of each pathogen suspension was diluted in approximately 35 ml melted LB agar (max. 42° C.). The inoculated agar was poured into Omni Tray Single-well plates, Immuno TSP plates were attached. After drying the immune TSP plates were removed and the wells were inoculated with 5 μL overnight culture (triplicates) of Bacillus test strains. The plates were incubated aerobically at 30° C. for 48 hours. For the E. coli plates, two replicate plates were used (n=2); for the 10 Salmonella spp. plates, one replicate plate was used (n=1).
The following positioning of the Bacillus subtilis strains on the plates containing the pathogens was used:
The concentration of E. coli and Salmonella spp. in the inoculated agar was estimated to be 2.9×10^4 CFU/ml.

O=C(O)c1cn(C2CC2)c2cc(N3CCNCC3)c(F)cc2c1=O [ciprofloxacin]
inhibition zones (FIG. 2, in words): Inhibition is also seen

Reference: patent US11856970B2, “Bacillus subtilis for animal feed” (CHR. HANSEN A/S, priority 2018, dated 2024)
